This note sets out measurements from US20250224410A1, “READY-TO-[…] FOR CHEMICAL ANALYSES AND QUANTIFICATION OF ANALYTES IN BIOLOGICAL SAMPLES” (PinPoint Testing, LLC, priority 2021, published 2025).

“Also recorded” adds a separate entry of the source.

Data set [1] has as its system beta glucuronidase purified from abalone tissue. Description: Storage stability of analytical standards in ready-to-use test kits at −20° C. with abalone beta-glucuronidase. The class given is physicochemical. The conditions noted are these: for stability of the standard, suspended solid state technology / stability of the standard, urine matrix interface technology: up to 14 days; for stability of the standard in ready-to-use kits (free drug degradant peak area normalized to codeine): kits made with suspended solid state and solid state (direct enzyme interface, urine matrix interface) technology, snap frozen at −20° C., LC-MS/MS. How it is done: (§1) Both (A) purified recombinant beta glucuronidase (KURA) and (B) beta glucuronidase purified from abalone tissue show similar results. Complete degradation was estimated by incubating the buprenorphine glucuronic acid standard under optimum reaction conditions for 1 hr. Negative controls were processed like that of mixed kits but excluded the respective beta-glucuronidase enzyme to measure non-specific degradation. All samples were extracted with acetonitrile prior to analysis using a liquid chromatography tandem mass spectrometry method optimized for buprenorphine. Where possible beta-glucuronidase enzyme was removed from suspended solid state, direct enzyme, and urine matrix samples prior to extraction. Acetonitrile was directly added to frozen mixed kits and negative controls to immediately degrade the beta glucuronidase enzyme. Removal of enzyme prior to extraction and the quick addition of acetonitrile limited degradation associated with sample processing and provided a better measurement of storage stability. Peak area of the degradant (free drug) was normalized to the response of codeine which was included to control for day-to-day and analytical variation. Data are presented as average±standard deviation (n=3-4). All experimental groups were manufactured and snap frozen at −20° C. prior to analysis.
FIG. 5. […] Negative controls were processed like that of mixed kits but excluded the respective beta-glucuronidase enzyme to measure non-specific degradation. Since 6-MAM was directly assayed complete degradation was estimated at the limit of detection (S/N≤10) established for the liquid chromatography tandem mass spectrometry method optimized for 6-MAM detection. All samples were extracted with acetonitrile prior to analysis. Where possible beta-glucuronidase enzyme was removed from suspended solid state, direct enzyme, and urine matrix samples prior to extraction. Acetonitrile was directly added to frozen mixed kits and negative controls to immediately degrade beta glucuronidase enzyme. Removal of enzyme prior to extraction and the quick addition of acetonitrile limited degradation associated with sample processing and provided a better measurement of storage stability. Peak area of 6-MAM was normalized to the response of codeine which was included to control for day-to-day and analytical variation. Data are presented as average±standard deviation (n=3-4). All experimental groups were manufactured and snap frozen at −20° C. prior to analysis.
(§2) Therefore, novel technology is required to stabilize process control specimens if ready-to-use formats are to be developed for analytical laboratories. Three new technologies (suspended solid state, direct enzyme interface, and urine matrix interface technology) were investigated to determine their utility in ready-to-use analytical test kit designs. While all three technologies afforded significant protection and stabilized the manufacturing process, only the suspended state and urine matrix technologies provided complete stability for 14 days in kits stored at −20° C.
(§3) The amount of degradation is independent of the source of the beta glucuronidase and remains constant for 14 days when kits are stored at −20° C. This storage temperature was selected because it is mostly commonly utilized by analytical testing laboratories. Degradation is specifically associated with manufacturing and storage because acetonitrile used for sample extraction was added immediately to frozen kits to degrade the beta-glucuronidase enzyme prior to sample processing and where possible (solid-state, direct enzyme interface, and matrix interface samples) the beta-glucuronidase enzyme was removed prior to sample extraction. These measures minimized any degradation that may have occurred during sample processing.

The test system of data set [2] is purified recombinant beta glucuronidase (KURA). In words: Storage stability of analytical standards in ready-to-use test kits at −20° C. with recombinant beta-glucuronidase. The format is physicochemical. As to conditions: for stability of the standard in ready-to-use kits (free drug degradant peak area normalized to codeine): kits made with suspended solid state and solid state (direct enzyme interface, urine matrix interface) technology, snap frozen at −20° C., LC-MS/MS. On the procedure:
as §1, §2, §3
A 48-well plate from Innovative Labs (48 Rectangular Well U-Bottom 42.60 mm Height, 4.6 mL capacity) was formulated with various combinations of a mixture of glucuronidated drugs purchased from Cerilliant, Round Rock Texas, US (see details in table below), abalone enzyme (item #CST208) from ChemSci technologies, Belvidere IL, USA, Recombinant B-One (item #B-One-100 mL) enzyme from Kura Bioscience, buffer solution made with 5 mL of acetic acid and 7.71 g of ammonium acetate in 995 mL of pure water, and blank urine (item #OH2060) from Golden West Diagnostics.
Wells E1, F1, G1, and H1 designated as “Kura Pos. control drugs+Enz” contain the glucuronide drug standards in 50 μL DMSO mixed with […] of water and […] of Kura enzyme. The materials in this well were stored in frozen state before use.
Wells A3, B3, C3, and D3 designated as “DB pop removed Kura” contain the glucuronide drug standards in 50 μL DMSO and a suspended frozen mixture of […] of water and […] of Kura enzyme (see example 5: manufacturing process D). The materials in this well were stored in frozen state before use and the frozen enzyme and water mixture was removed prior to analysis of the well contents.

The mark [3] stands for this setting: mixed kits, snap frozen and stored at −20° C.
The mark [4] stands for this setting: kits stored at −20° C., up to 14 days.

In the case of `CC(=O)O[C@H]1C=C[C@H]2[C@H]3Cc4ccc(O)c5c4[C@@]2(CCN3C)[C@H]1O5` [6-MAM, 6-monoacetylmorphine], in data set [1] (kits stored at −20° C.), the “stability of the standard, direct enzyme interface technology” value was “slowed the rate of degradation but did not prevent 6-MAM degradation”; the “stability of the standard, suspended solid state technology” value was “fully protected; also recorded: fully protects and stabilizes”; the “stability of the standard, urine matrix interface technology” value was “slowed the rate of degradation but did not prevent 6-MAM degradation”. In data set [1] (mixed kits stored at −20° C.), the “time to significant degradation in mixed kits” value is on record as not above 4 days. The “stability of the standard in kits that mix enzyme with the analytical standard” value in data set [1] (setting [3]) is given as “not stable”. Besides, in data set [1] (snap freezing at −20° C., day 0), the “degradation during the manufacturing process (day 0) in mixed kits” value is listed as “no degradation occurred”. In addition, in data set [2] (setting [3]), the “stability of the standard in kits that mix enzyme with the analytical standard” value is “no 6-MAM degradation occurred”.
In the case of `C[N+](C)(CCC=C1c2ccccc2CCc2ccccc21)[C@@H]1O[C@H](C(=O)[O-])[C@@H](O)[C@@H](O)[C@H]1O` [amitriptyline glucuronic acid standard, Amitriptyline N-beta-D-glucuronide], the “stability of the standard in ready-to-use kits (free drug degradant peak area normalized to codeine)” value in data set [1] is “fully protected and stabilized”; in data set [2], “fully protected and stabilized”.
Regarding `CO[C@]12CC[C@@]3(C[C@@H]1[C@](C)(O)C(C)(C)C)[C@H]1Cc4ccc(O[C@@H]5O[C@H](C(=O)O)[C@@H](O)[C@H](O)[C@H]5O)c5c4[C@@]3(CCN1CC1CC1)[C@H]2O5` [buprenorphine glucuronic acid standard, Buprenorphine-3-beta-D-glucuronide], the “stability of the standard in ready-to-use kits (free drug degradant peak area normalized to codeine)” value is “fully protected and stabilized” in data set [1]; “fully protected and stabilized” in data set [2].
Turning to `CN1CC[C@]23c4c5ccc(O[C@@H]6O[C@H](C(=O)O)[C@@H](O)[C@H](O)[C@H]6O)c4O[C@H]2C(=O)CC[C@H]3[C@H]1C5` [hydromorphone glucuronic acid standard, Hydromorphone 3-beta-D-glucuronide], the “stability of the standard in ready-to-use kits (free drug degradant peak area normalized to codeine)” value in data set [1] is “fully protected and stabilized”; in data set [2], “fully protected and stabilized”.
Take `O=C1Nc2ccc(Cl)cc2C(c2ccccc2Cl)=NC1O[C@@H]1O[C@H](C(=O)O)[C@@H](O)[C@H](O)[C@H]1O` (stereo partly shown) [lorazepam glucuronic acid standard, Lorazepam glucuronide]: in data set [1], the “stability of the standard in ready-to-use kits (free drug degradant peak area normalized to codeine)” value was “fully protected and stabilized”. Also, in data set [1] (kits stored at −20° C.), the “day at which complete degradation occurred, direct enzyme interface technology” value came out at 14 day; the “day at which significant degradation was detected, direct enzyme interface technology” value was 4 day; the “storage time for which the standard was protected, direct enzyme interface technology” value was 1 day; the “stability of the standard, suspended solid state technology” value is given as “fully protected”. The “stability of the standard, urine matrix interface technology” value in data set [1] (kits stored at −20° C.) is “fully protected”. Besides, in data set [2], the “stability of the standard in ready-to-use kits (free drug degradant peak area normalized to codeine)” value was “fully protected and stabilized”. In data set [2] (kits stored at −20° C.), the “day at which complete degradation occurred, direct enzyme interface technology” value is given as 14 day; the “day at which significant degradation was detected, direct enzyme interface technology” value is on record as 4 day; the “storage time for which the standard was protected, direct enzyme interface technology” value is 1 day. In data set [2] (setting [4]), the “stability of the standard, suspended solid state technology” value is listed as “fully protected” and the “stability of the standard, urine matrix interface technology” value is “fully protected”.
